Where two headings read alike, the source gives them in different places.
Tested on: cancer cell lines from the cancer cell line encyclopedia (CCLE)
Assay: Cell line profiling (CLiP) proliferation experiment
Type: cell-based
Parameters: key to Compound Activity (1-inactive;2-active): 1-inactive; 2-active; ACTIVITY_AREA: scale not given here; AMAX: unit not given here
Settings: for IC50: read-out: Crossing Point; for EC50: read-out: Inflection Point
Protocol: Compound profiling experiment and data analysis was performed as previously described. Data was imported and plotted using the Tibco Spotfire DXP application. Lines were categorized as sensitive, intermediate and refractory as follows: Amax<-40 & Inflection Point <2 ~ Sensitive, Amax>-20 & Inflection Point >10 ~ Refractory, all else were called Intermediate. Cancer Cell line HG-U133 Plus 2 data was processed and normalized as described. […] Five sets of refractory cell lines were generated from the pool of refractory cell lines trying to match the lineage composition of the set of sensitive cell lines. The limma package was used as previously described to perform the statistical comparison.

[1] = cell line GA-10, haematopoietic_and_lymphoid_tissue
[2] = cell line GAMG, central_nervous_system
[3] = cell line GI-1 (central_nervous_system, gliosarcoma)
[4] = cell line GI-1, central_nervous_system
[5] = cell line GMS-10, central_nervous_system
[6] = cell line GOS-3 (central_nervous_system, astrocytoma)
[7] = cell line GOS-3, central_nervous_system
[8] = cell line GP2d, large_intestine
[9] = cell line GRANTA-519, haematopoietic_and_lymphoid_tissue
[10] = cell line H4, central_nervous_system
[11] = cell line HARA (lung, squamous_cell_carcinoma)
[12] = cell line HH, haematopoietic_and_lymphoid_tissue
[13] = cell line Hs 611.T, haematopoietic_and_lymphoid_tissue
[14] = cell line MCAS (ovary, mucinous_carcinoma)
[15] = cell line MOG-G-UVW (central_nervous_system)
[16] = cell line NB-1 (autonomic_ganglia)
[17] = cell line NB-4 (haematopoietic_and_lymphoid_tissue)
[18] = cell line SNU-119, ovary, adenocarcinoma
[19] = cell line SNU-626 (central_nervous_system, astrocytoma_Grade_IV)
[20] = cell line SNU-1079, biliary_tract

CC(C)[C@@]12C[C@@H](O)[C@@](C)(O1)[C@@H]1CC[C@@H](C)[C@H]1[C@@H]2OC(=O)/C=C/c1ccccc1 [Englerin B]
ACTIVITY_AREA [1]: 28.18
AMAX [1]: 8.5
RESPONSE [1]: REFRACTORY
ACTIVITY_AREA [2]: 50.48
AMAX [2]: -45.21
RESPONSE [2]: INTERMEDIATE
ACTIVITY_AREA (cell line GCIY, stomach): 49.94
AMAX (cell line GCIY, stomach): -70.92
RESPONSE (cell line GCIY, stomach): INTERMEDIATE
Compound Activity (1-inactive;2-active) (cell line GCT (soft_tissue, NS)): 1
ACTIVITY_AREA (cell line GCT, soft_tissue): 17.95
AMAX (cell line GCT, soft_tissue): -52.9
RESPONSE (cell line GCT, soft_tissue): INTERMEDIATE
IC50 (cell line GCT, soft_tissue): 27.1 µM
EC50 (cell line GCT, soft_tissue): 16.4 µM
Compound Activity (1-inactive;2-active) [3]: 1
IC50 [3]: > 30 µM
ACTIVITY_AREA [4]: 112.12
AMAX [4]: -25.87
RESPONSE [4]: INTERMEDIATE
IC50 [4]: > 30 µM
ACTIVITY_AREA [5]: 21.47
AMAX [5]: -32.03
RESPONSE [5]: INTERMEDIATE
Compound Activity (1-inactive;2-active) [6]: 1
IC50 [6]: > 30 µM
ACTIVITY_AREA [7]: 26.28
AMAX [7]: -31.04
RESPONSE [7]: INTERMEDIATE
IC50 [7]: > 30 µM
ACTIVITY_AREA [8]: 32.63
AMAX [8]: -48.04
RESPONSE [8]: INTERMEDIATE
ACTIVITY_AREA (cell line GR-M, skin): 48.68
AMAX (cell line GR-M, skin): -36.64
RESPONSE (cell line GR-M, skin): INTERMEDIATE
IC50 (cell line GR-M, skin): > 30 µM
IC50 (cell line GR-M): > 30 µM
ACTIVITY_AREA [9]: 14.82
AMAX [9]: 16.83
RESPONSE [9]: REFRACTORY
ACTIVITY_AREA [10]: 16.33
AMAX [10]: -3.42
RESPONSE [10]: REFRACTORY
IC50 [10]: > 30 µM
IC50 (cell line H4): > 30 µM
Compound Activity (1-inactive;2-active) [11]: 1
IC50 [11]: 15.9 µM
ACTIVITY_AREA (cell line HARA, lung): 73.57
AMAX (cell line HARA, lung): -72.32
RESPONSE (cell line HARA, lung): INTERMEDIATE
IC50 (cell line HARA, lung): 15.9 µM
Compound Activity (1-inactive;2-active) (cell line HCC-15 (lung, squamous_cell_carcinoma)): 1
ACTIVITY_AREA (cell line HCC-15, lung): 57.49
AMAX (cell line HCC-15, lung): -70.57
RESPONSE (cell line HCC-15, lung): INTERMEDIATE
Compound Activity (1-inactive;2-active) (cell line HCC-44 (lung, adenocarcinoma)): 1
RESPONSE (cell line HCC-44, lung): INTERMEDIATE
RESPONSE (cell line HCC-366, lung): REFRACTORY
Compound Activity (1-inactive;2-active) (cell line HCC-1171 (lung, non_small_cell_carcinoma)): 1
ACTIVITY_AREA (cell line HCC-1171, lung): 53.16
AMAX (cell line HCC-1171, lung): -52.03
RESPONSE (cell line HCC-1171, lung): INTERMEDIATE
IC50 (cell line HEC-59, endometrium): 19.1 µM
IC50 (cell line HEC-151, endometrium): 16.5 µM
IC50 (cell line HEC-265, endometrium): 27.1 µM
EC50 (cell line HEC-265, endometrium): 27.1 µM
Compound Activity (1-inactive;2-active) (cell line HEL 92.1.7 (haematopoietic_and_lymphoid_tissue, acute_myeloid_leukaemia)): 1
IC50 [12]: 10.1 µM
EC50 [12]: 9.47 µM
IC50 (cell line HLC-1, lung): > 30 µM
IC50 (cell line HLC-1): > 30 µM
IC50 (cell line HLF, liver): > 30 µM
EC50 (cell line HLF, liver): 16.8 µM
IC50 (cell line HLF): > 30 µM
IC50 (cell line HMC-1-8, breast): 29.7 µM
Compound Activity (1-inactive;2-active) (cell line HPB-ALL (haematopoietic_and_lymphoid_tissue, acute_lymphoblastic_T_cell_leukaemia)): 1
IC50 (cell line HT, haematopoietic_and_lymphoid_tissue): > 30 µM
IC50 (cell line HT): > 30 µM
IC50 (cell line HTK-, haematopoietic_and_lymphoid_tissue): 28.6 µM
IC50 (cell line Hs 571.T, ovary): 19.6 µM
EC50 (cell line Hs 571.T, ovary): 19.6 µM
IC50 [13]: 20.9 µM
EC50 [13]: 20.9 µM
IC50 (cell line Hs 729, soft_tissue): > 30 µM
IC50 (cell line Hs 729): > 30 µM
IC50 (cell line Hs 936.T, skin): > 30 µM
EC50 (cell line Hs 936.T, skin): 7.96 µM
IC50 (cell line Hs 936.T): > 30 µM
IC50 (cell line Hs 939.T, skin): > 30 µM
IC50 (cell line Hs 939.T): > 30 µM
IC50 (cell line Hs 940.T, skin): > 30 µM
IC50 (cell line Hs 944.T, skin): 20.6 µM
EC50 (cell line Hs 944.T, skin): 17.1 µM
IC50 (cell line HuG1-N, stomach): 10.9 µM
IC50 (cell line J82): > 30 µM
IC50 (cell line KLE): > 30 µM
Compound Activity (1-inactive;2-active) (cell line Loucy (haematopoietic_and_lymphoid_tissue, acute_lymphoblastic_T_cell_leukaemia)): 1
Compound Activity (1-inactive;2-active) (cell line MC116 (haematopoietic_and_lymphoid_tissue, B_cell_lymphoma_unspecified)): 1
Compound Activity (1-inactive;2-active) [14]: 1
IC50 [14]: > 30 µM
Compound Activity (1-inactive;2-active) (cell line MDA-MB-231 (breast, NS)): 1
Compound Activity (1-inactive;2-active) (cell line MDA-MB-453 (breast, NS)): 1
Compound Activity (1-inactive;2-active) (cell line MEC-1 (haematopoietic_and_lymphoid_tissue, chronic_lymphocytic_leukaemia-small_lymphocytic_lymphoma)): 1
IC50 (cell line MEL-HO (skin)): > 30 µM
IC50 (cell line MEL-HO): > 30 µM
IC50 (cell line MHH-NB-11 (autonomic_ganglia)): 26.9 µM
IC50 (cell line MJ (haematopoietic_and_lymphoid_tissue)): 9.13 µM
IC50 [15]: > 30 µM
EC50 [15]: 10.2 µM
IC50 (cell line MOG-G-UVW): > 30 µM
Compound Activity (1-inactive;2-active) (cell line MOLT-16 (haematopoietic_and_lymphoid_tissue, acute_lymphoblastic_T_cell_leukaemia)): 1
Compound Activity (1-inactive;2-active) (cell line MONO-MAC-6 (haematopoietic_and_lymphoid_tissue, acute_myeloid_leukaemia)): 1
IC50 (cell line MOR/CPR (lung)): 28.3 µM
EC50 (cell line MOR/CPR (lung)): 12.9 µM
EC50 (cell line MOR/CPR): 12.9 µM
Compound Activity (1-inactive;2-active) (cell line MeWo (skin, NS)): 1
IC50 (cell line Mel285 (eye)): > 30 µM
EC50 (cell line Mel285 (eye)): 13.8 µM
IC50 (cell line Mel285): > 30 µM
IC50 [16]: 22.3 µM
EC50 [16]: 22.3 µM
IC50 [17]: 18.5 µM
EC50 [17]: 11.5 µM
Compound Activity (1-inactive;2-active) (cell line NCI-H1048 (lung, small_cell_carcinoma)): 1
Compound Activity (1-inactive;2-active) (cell line NCI-H1299 (lung, non_small_cell_carcinoma)): 1
IC50 (cell line NCI-H1341 (lung)): 15 µM
EC50 (cell line NCI-H1341 (lung)): 15 µM
Compound Activity (1-inactive;2-active) (cell line NCI-H1355 (lung, adenocarcinoma)): 1
Compound Activity (1-inactive;2-active) (cell line NCI-H1792 (lung, adenocarcinoma)): 1
Compound Activity (1-inactive;2-active) (cell line NCI-H2073 (lung, adenocarcinoma)): 1
IC50 (cell line NCI-H2106): > 30 µM
IC50 (cell line NCI-H2330): > 30 µM
IC50 (cell line OC 316): > 30 µM
IC50 (cell line OMM2.3): > 30 µM
EC50 (cell line OMM2.3): 13.6 µM
IC50 (cell line OMM2.5): > 30 µM
IC50 (cell line OV7): > 30 µM
IC50 (cell line OVISE): 17.9 µM
IC50 (cell line PC-3): 25.9 µM
IC50 (cell line PE/CA-PJ41 (clone D2)): 25.8 µM
IC50 (cell line PEER): 13.5 µM
IC50 (cell line RCC10RGB): > 30 µM
IC50 (cell line RCH-ACV): 15.6 µM
EC50 (cell line RCH-ACV): 12.1 µM
IC50 (cell line RD): > 30 µM
IC50 (cell line RERF-LC-AI): > 30 µM
EC50 (cell line RERF-LC-AI): 17.9 µM
IC50 (cell line RI-1): 9.99 µM
EC50 (cell line RI-1): 9.99 µM
IC50 (cell line RKN): > 30 µM
IC50 (cell line RKO): 14.7 µM
EC50 (cell line RKO): 13.1 µM
IC50 (cell line RL): 12.5 µM
EC50 (cell line RL): 11.8 µM
IC50 (cell line RMUG-S): > 30 µM
IC50 (cell line Reh): 21.5 µM
EC50 (cell line Reh): 21.5 µM
IC50 (cell line SEM, haematopoietic_and_lymphoid_tissue, acute_lymphoblastic_B_cell_leukaemia): 14.2 µM
Compound Activity (1-inactive;2-active) (cell line SF-295 (central_nervous_system, astrocytoma_Grade_IV)): 1
IC50 (cell line SH-4, skin): > 30 µM
Compound Activity (1-inactive;2-active) (cell line SK-N-SH (autonomic_ganglia, NS)): 1
IC50 (cell line SNG-M, endometrium, adenocarcinoma): > 30 µM
IC50 [18]: > 30 µM
EC50 [18]: 27.2 µM
Compound Activity (1-inactive;2-active) (cell line SNU-475 (liver, hepatocellular_carcinoma)): 1
Compound Activity (1-inactive;2-active) [19]: 1
IC50 [19]: > 30 µM
IC50 (cell line SNU-626, central_nervous_system, astrocytoma_Grade_IV): > 30 µM
IC50 (cell line SNU-738, central_nervous_system, oligodendroglioma): > 30 µM
IC50 [20]: 25.7 µM
EC50 [20]: 25.7 µM
Compound Activity (1-inactive;2-active) (cell line SW48 (large_intestine, adenocarcinoma)): 1
Compound Activity (1-inactive;2-active) (cell line SW 1783 (central_nervous_system, astrocytoma_Grade_III)): 1
Compound Activity (1-inactive;2-active) (cell line THP-1 (haematopoietic_and_lymphoid_tissue, acute_myeloid_leukaemia)): 1
Compound Activity (1-inactive;2-active) (compound-level call): 1
Compound Activity (1-inactive;2-active) (compound-level call printed on every cell line row): 1
Compound Activity (1-inactive;2-active) (compound-level call, the same on every cell line's row): 1
Compound Activity (1-inactive;2-active) (compound-level flag): 1
Compound Activity (1-inactive;2-active) (compound-level flag repeated on every cell line row): 1
Compound Activity (1-inactive;2-active) (compound-level flag, printed on every cell line row): 1
Compound Activity (1-inactive;2-active) (flag of the compound): 1
Compound Activity (1-inactive;2-active) (overall call per compound): 1
Compound Activity (1-inactive;2-active) (overall class of the compound): 1
Compound Activity (1-inactive;2-active) (printed on every cell line row, same value for the compound throughout): 1

Source: article PMC4476799, “Englerin A Agonizes the TRPC4/C5 Cation Channels to Inhibit Tumor Cell Line Proliferation” (PLoS ONE, 2015)
